Measured values from patent US9926271B2, “Octahydrocyclopentapyrroles, their preparation and use” (The Trustees of Columbia University in the City of New York, priority 2013, dated 2018).

Columns and labels:
[1] = target: T1, RBP4-TTR interaction (Homo sapiens, UniProt P02753); assay: TR-FRET (HTRF) assay for retinol-induced RBP4-TTR interaction; format: biochemical; design: human RBP4 fragment (amino acids 19-201); host or cells: Gold(DE3)pLysS E. coli strain (Stratagene), pMAL-c4x vector; conditions: in the presence of 1 μM retinol; read-out: HTRF assay for antagonists of RBP4-TTR interaction: IC50
Source text: TR-FRET Assay for Retinol-Induced RBP4-TTR Interaction
Binding of a desired RBP4 antagonist displaces retinol and induces hindrance for RBP4-TTR interaction resulting in the decreased FRET signal (FIG. 7). Bacterially expressed MBP-RBP4 and untagged TTR were used in this assay. […] Following cell lysis, recombinant RBP4 was purified from the soluble fraction using the ACTA FPLC system (GE Healthcare) equipped with the 5-ml the MBP Trap HP column. Human untagged TTR was purchased from Calbiochem. Untagged TTR was labeled directly with Eu^3+ Cryptate-NHS using the HTRF Cryptate Labeling kit from CisBio following the manufacturer's recommendations. HTRF assay was performed in white low volume 384 well plates (Greiner-Bio) in a final assay volume of 16 μl per well. The reaction buffer contained 10 mM Tris-HCl pH 7.5, 1 mM DTT, 0.05% NP-40, 0.05% Prionex, 6% glycerol, and 400 mM RE. […] Titration of test compounds in this assay was conducted in the presence of 1 μM retinol. All reactions were assembled in the dark under dim red light and incubated overnight at +4° C. wrapped in aluminum foil. TR-FRET signal was measured in the SpectraMax M5e Multimode Plate Reader (Molecular Device). Fluorescence was excited at 337 nm and two readings per well were taken: Reading 1 for time-gated energy transfer from Eu(K) to d2 (337 nm excitation, 668 nm emission, counting delay 75 microseconds, counting window 100 microseconds) and Reading 2 for Eu(K) time-gated fluorescence (337 nm excitation, 620 nm emission, counting delay 400 microseconds, counting window 400 microseconds). The TR-FRET signal was expressed as the ratio of fluorescence intensity: Flu665/Flu620×10,000.

[2] = target: T2, RBP4 (Homo sapiens, UniProt P02753); assay: Scintillation proximity RBP4 binding assay (SPA); design: Untagged human RBP4 purified from urine of tubular proteinuria patients; purchased Fitzgerald Industries International; host or cells: urine of tubular proteinuria patients; conditions: 10 nM 3H-Retinol, 50 nM biotinylated RBP4
Method: Scintillation Proximity RBP4 Binding Assay
Untagged human RBP4 purified from urine of tubular proteinuria patients was purchased from Fitzgerald Industries International. It was biotinylated using the EZ-Link Sulfo-NHS-LC-Biotinylation kit from Pierce following the manufacturer's recommendations. Binding experiments were performed in 96-well plates (OptiPlate, PerkinElmer) in a final assay volume of 100 μl per well in SPA buffer (1×PBS, pH 7.4, 1 mM EDTA, 0.1% BSA, 0.5% CHAPS). The reaction mix contained 10 nM ^3H-Retinol (48.7 Ci/mmol; PerkinElmer), 0.3 mg/well Streptavidin-PVT beads, 50 nM biotinylated RBP4 and a test compound. Nonspecific binding was determined in the presence of 20 μM of unlabeled retinol. The reaction mix was assembled in the dark under dim red light. The plates were sealed with clear tape (TopSeal-A: 96-well microplate, PerkinElmer), wrapped in the aluminum foil, and allowed to equilibrate 6 hours at room temperature followed by overnight incubation at +4° C. Radiocounts were measured using a TopCount NXT counter (Packard Instrument Company).

[3] = system: mice; conditions: cited from earlier work
[4] = system: Abca4−/− mice; conditions: animal model of excessive bisretinoid accumulation; cited from earlier work
[5] = target: T1, RBP4-TTR interaction; conditions: cited from earlier work
[6] = system: serum RBP4 and retinol; conditions: in vivo; cited from earlier work
[7] = system: retinal pigment epithelium cells; conditions: many cell types, including the retinal pigment epithelium cells; cited from earlier work
[8] = target: T2, RBP4; conditions: cited from earlier work

Compound `COc1cc(C(=O)O)nc(N2C[C@H]3C[C@@H](c4ccccc4C(F)(F)F)C[C@H]3C2)n1` [Compound 62, 6-Methoxy-2-((3aR,5r,6aS)-5-(2-(trifluoromethyl)phenyl)hexahydrocyclopenta[c]pyrrol-2(1H)-yl)pyrimidine-4-carboxylic Acid] has an IC50 [1] of 86.7 nM and an IC50 [2] of 14.3 nM.
Work on `CC(C)c1cc(C(=O)O)nc(N2C[C@H]3C[C@@H](c4ccccc4C(F)(F)F)C[C@H]3C2)n1` [Compound 63, 6-Isopropyl-2-((3aR,5r,6aS)-5-(2-(trifluoromethyl)phenyl)hexahydrocyclopenta[c]pyrrol-2(1H)-yl)pyrimidine-4-carboxylic Acid] yielded an IC50 [1] of 203 nM and an IC50 [2] of 158 nM.
`O=C(O)c1ccnc(N2C[C@H]3C[C@@H](c4ccccc4C(F)(F)F)C[C@H]3C2)n1` [Compound 64, 2-((3aR,5r,6aS)-5-(2-(Trifluoromethyl)phenyl)hexahydrocyclopenta[c]pyrrol-2(1H)-yl)pyrimidine-4-carboxylic Acid] gave an IC50 [1] of 79.6 nM and an IC50 [2] of 27.2 nM.
In the case of `O=C(O)c1cc(C(F)(F)F)nc(N2C[C@H]3C[C@@H](c4ccccc4C(F)(F)F)C[C@H]3C2)n1` [Compound 65, 6-(Trifluoromethyl)-2-((3aR,5r,6aS)-5-(2-(trifluoromethyl)phenyl)hexahydrocyclopenta[c]pyrrol-2(1H)-yl)pyrimidine-4-carboxylic Acid], the IC50 [1] is reported as 88 nM and the IC50 [2] is reported as 9.5 nM.
In the case of `Cc1cnc(N2C[C@H]3C[C@@H](c4ccccc4C(F)(F)F)C[C@H]3C2)nc1C(=O)O` [Compound 66], the IC50 [1] is reported as 596 nM and the IC50 [2] is reported as 90 nM.
In the case of `O=C(O)c1nc(N2C[C@H]3C[C@@H](c4ccccc4C(F)(F)F)C[C@H]3C2)ncc1F` [Compound 67], the IC50 [1] is reported as 276 nM and the IC50 [2] is reported as 25.9 nM.
For `O=C(O)c1cnc(N2C[C@H]3C[C@@H](c4ccccc4C(F)(F)F)C[C@H]3C2)nc1` [Compound 68], the IC50 [1] was 1860 nM and the IC50 [2] was 172 nM.
`Cc1cc(C(=O)O)nc(N2C[C@H]3C[C@@H](c4ccccc4C(F)(F)F)C[C@H]3C2)c1` [Compound 69, 4-Methyl-6-((3aR,5r,6aS)-5-(2-(trifluoromethyl)phenyl)hexahydrocyclopenta[c]pyrrol-2(1H)-yl)picolinic Acid] gave an IC50 [1] of 295 nM and an IC50 [2] of 14 nM.
In the case of `Cc1cc(C(=O)O)cc(N2C[C@H]3C[C@@H](c4ccccc4C(F)(F)F)C[C@H]3C2)n1` [Compound 70, 2-Methyl-6-((3aR,5r,6aS)-5-(2-(trifluoromethyl)phenyl)hexahydrocyclopenta[c]pyrrol-2(1H)-yl)isonicotinic Acid], the IC50 [1] is reported as 229 nM and the IC50 [2] is reported as 53.2 nM.
In the case of `O=C(O)c1cccnc1N1C[C@H]2C[C@@H](c3ccccc3C(F)(F)F)C[C@H]2C1` [Compound 71, 2-((3aR,5r,6aS)-5-(2-(Trifluoromethyl)phenyl)hexahydrocyclopenta[c]pyrrol-2(1H)-yl)nicotinic Acid], the IC50 [1] is reported as 382 nM and the IC50 [2] is reported as 43.8 nM.
For `Cc1cc(C(=O)O)nc(N2C[C@H]3C[C@@H](c4cc(F)ccc4C(F)(F)F)C[C@H]3C2)n1` [Compound 72, 2-((3aR,5r,6aS)-5-(5-Fluoro-2-(trifluoromethyl)phenyl)hexahydrocyclopenta[c]pyrrol-2(1H)-yl)-6-methylpyrimidine-4-carboxylic Acid], the IC50 [1] was 49.2 nM and the IC50 [2] was 54.3 nM.
`Cc1cc(NC(=O)N2C[C@H]3C[C@@H](c4ccccc4C(F)(F)F)C[C@H]3C2)c(C(=O)O)cn1` [Compound 73, 6-Methyl-4-((3aR,5r,6aS)-5-(2-(trifluoromethyl)phenyl)octahydrocyclopenta[c]pyrrole-2-carboxamido)nicotinic Acid] showed an IC50 [2] of 23.9 nM.
`Cc1nc(N2C[C@H]3C[C@@H](c4ccccc4C(F)(F)F)C[C@H]3C2)nc(C(=O)O)c1C` [Compound 74, 5,6-Dimethyl-2-((3aR,5r,6aS)-5-(2-(trifluoromethyl)phenyl)hexahydrocyclopenta[c]pyrrol-2(1H)-yl)pyrimidine-4-carboxylic Acid] gave an IC50 [1] of 123 nM and an IC50 [2] of 48.7 nM.
For `CC1=C(/C=C/C(C)=C/C=C/C(C)=C/C(=O)Nc2ccc(O)cc2)C(C)(C)CCC1` [fenretinide, N-(4-hydroxy-phenyl)retinamide], the formation of hemangiosarcomas [3] is given as “stimulate formation of hemangiosarcomas”, the A2E production [4] is given as “reduced A2E production” and the RBP4-TTR interaction [5] is given as “disrupt the RBP4-TTR interaction”. For the same compound, the “serum RBP4 and retinol” value [6] was “reduce serum RBP4 and retinol”, the induction of apoptosis [7] was “extremely active inducer of apoptosis” and the “binding to RBP4, displacement of all-trans retinol” value [8] was “bind to RBP4”.
